{"source": "patent US10640545B2", "about": "(THE GOVERNORS OF THE UNIVERSITY OF ALBERTA, priority 2017, dated 2020)", "key": {"[1]": {"target": "T1, wild-type rat apelin receptor (Rattus norvegicus, UniProt Q9JHG3)", "T1 construct": "expressed in transfected cells", "T1 sequence (Q9JHG3 1-377)": "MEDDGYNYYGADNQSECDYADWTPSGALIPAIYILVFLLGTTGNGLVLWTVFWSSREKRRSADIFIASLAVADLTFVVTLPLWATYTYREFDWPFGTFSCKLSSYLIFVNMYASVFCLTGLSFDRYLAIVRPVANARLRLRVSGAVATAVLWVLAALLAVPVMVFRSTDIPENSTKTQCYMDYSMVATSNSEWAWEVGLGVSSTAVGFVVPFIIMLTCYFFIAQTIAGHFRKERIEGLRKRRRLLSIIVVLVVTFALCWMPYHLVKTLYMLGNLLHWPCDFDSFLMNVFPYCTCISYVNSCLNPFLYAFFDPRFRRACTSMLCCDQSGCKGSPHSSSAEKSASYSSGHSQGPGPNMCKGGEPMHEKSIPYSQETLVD", "assay": "Radioligand binding, displacement of [125I]-pyr-1-apelin-13 on CHO cell membranes", "settings": "rat apelin receptor", "procedure,_shortened": "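Membranes (1 μg) from CHO cells stably expressing rat apelin receptor-EGFP incubated 3 h at 20 °C with 0.2 nM [125I]-pyr-1-apelin-13 and varying peptide concentrations in 50 mM HEPES, 5 mM MgCl2, 1% BSA, pH 7.5. Bound radioactivity measured by filtration and gamma counting.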"}, "anesthetized mice": {"system": "anesthetized mice", "assay": "Blood pressure assay in anesthetized mice", "format": "in vivo", "settings": "1.4 μM/kg body weight injected, SBP, DBP, MABP", "procedure,_shortened": "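Mice were anaesthetized with 1.5% isoflurane/oxygen and kept at 36 °C. Peptide (1.4 μM/kg body weight) or saline was injected via the right jugular vein. Arterial pressure and heart rate were recorded continuously through a catheter in the aorta via the right carotid artery over 60 min and reported as SBP, DBP, MABP and HR.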"}, "isolated rat hearts": {"system": "isolated rat hearts", "assay": "Langendorff isolated heart, ischemia-reperfusion injury", "settings": "ex vivo heart, 30 min ischemia", "procedure": "The ex vivo heart was assessed for a variety of parameters (heart rate (HR); left ventricle developed pressure (LVDP); maximum derivative of change in systolic pressure over time (max dP/dt); minimum derivative of change in diastolic pressure over time (min dP/dt); and rate-pressure product (RPP)) indicative of general heart function and performance (FIG. 11).\nLangendorff heart perfusion and ischemia-reperfusion injury were prepared and cardiac function was measured. Mice were heparinized and anaesthetized with 1.5-2% isoflurane inhalation. The heart was excised, mounted on a Langendorff system, and perfused at a consistent pressure of 80 mmHg with modified Krebs-Henseleit solution (116 mM NaCl, 3.2 mM KCl, 2.0 mM CaCl2), 1.2 mM MgSO4, 25 mM NaHCO3, 1.2 mM KH2PO4, 11 mM glucose, 0.5 mM EDTA and 2 mM pyruvate), which was kept at 37° C. and continuously oxygenated with 95% O2 and 5% CO2 which maintained the perfusion buffer at pH 7.4. After stabilization and 10 min baseline recording, global ischemia was induced for 30 min followed by 40 min of reperfusion. Apelin 17 (2) or apelin peptides (11, 17, 18, or 19) were given at the start of reperfusion for 10 min at a concentration of 1 pM. Left ventricular functions were obtained continuously by PowerLab system (ADInstruments, Australia). Data was reported as mean value of every 5 min. Left ventricular functions were reported as: Left Ventricular Developed Pressure (LVDP); Heart rate (HR); maximum derivative of change in systolic pressure over time (max dP/dt); minimum derivative of change in diastolic pressure over time (min dP/dt); and Rate Pressure Product (RPP)."}, "in vitro": {"assay": "in vitro", "settings": "human, plasma"}, "NEP": {"target": "NEP (Homo sapiens, UniProt P08473)", "sequence (P08473 whole entry)": "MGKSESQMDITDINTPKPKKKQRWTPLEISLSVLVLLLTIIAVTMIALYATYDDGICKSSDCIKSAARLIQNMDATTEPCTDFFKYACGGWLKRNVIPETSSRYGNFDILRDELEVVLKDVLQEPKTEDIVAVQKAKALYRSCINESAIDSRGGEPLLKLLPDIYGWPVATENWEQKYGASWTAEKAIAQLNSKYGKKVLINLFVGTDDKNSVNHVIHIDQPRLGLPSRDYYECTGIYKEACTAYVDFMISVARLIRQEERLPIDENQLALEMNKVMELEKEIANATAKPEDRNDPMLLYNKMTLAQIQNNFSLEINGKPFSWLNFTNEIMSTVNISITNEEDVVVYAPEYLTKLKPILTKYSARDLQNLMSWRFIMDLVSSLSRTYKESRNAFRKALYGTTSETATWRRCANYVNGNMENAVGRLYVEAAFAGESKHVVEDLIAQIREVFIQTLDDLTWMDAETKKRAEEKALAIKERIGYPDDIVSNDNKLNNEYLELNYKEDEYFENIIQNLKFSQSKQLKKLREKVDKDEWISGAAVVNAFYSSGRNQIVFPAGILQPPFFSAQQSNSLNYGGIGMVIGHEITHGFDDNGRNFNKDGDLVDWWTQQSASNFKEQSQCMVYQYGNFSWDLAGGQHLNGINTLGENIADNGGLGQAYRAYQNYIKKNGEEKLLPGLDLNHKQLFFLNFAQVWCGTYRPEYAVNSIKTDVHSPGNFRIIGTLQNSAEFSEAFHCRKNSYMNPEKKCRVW", "assay": "Neprilysin inhibition assay (degradation of 1 after preincubation with peptide)", "format": "biochemical", "parameters": "purchased Sino Biological", "settings": "preincubation of NEP with equimolar peptide", "procedure": "This experiment investigates the ability of synthetic peptides 8-19 to inhibit the inherent proteolytic activity of NEP.\nAssays were performed in duplicate (n=2) for each time point."}}, "note": "*1 amine or outer side, *2 acyl side, *3 side chain or, on linkers, in order; H or OH if unused. Where a SMILES comes first, the peptide text is derived from it. [ ]: non-standard residue; d: D form. Phe(4-Br) = N[C@@H](Cc1ccc(Br)cc1)C(=O)O; azaLeu = CC(C)CN(N[*:1])C(=O)[*:2]; Nle = CCCC[C@H](N)C(=O)O; Aib = CC(C)(N)C(=O)O"}
{"smiles": "CCCC[C@H](NC(=O)[C@@H]1CCCN1C(=O)CNC(=O)[C@H](CCCCN)NC(=O)[C@H](Cc1c[nH]cn1)NC(=O)[C@H](CO)NC(=O)N(CC(C)C)NC(=O)[C@H](CCCNC(=N)N)NC(=O)[C@@H]1CCCN1C(=O)[C@H](CCCNC(=N)N)NC(=O)[C@H](CCC(N)=O)NC(=O)[C@H](CCCNC(=N)N)NC(=O)[C@H](CCCNC(=N)N)NC(=O)[C@H](Cc1ccccc1)NC(=O)[C@@H](N)CCCCN)C(=O)NC(C)(C)C(=O)N[C@@H](Cc1ccc(Br)cc1)C(=O)O", "note": "[Peptide 19] (H-KFRRQRPR[azaLeu]SHKGP[Nle][Aib][Phe(4-Br)]-OH; N-terminus and C-terminus assumed)", "values": [{"measurement": "receptor binding affinity (in words)", "setting": "[1]", "value": "sub-nanomolar receptor affinities"}, {"measurement": "blood pressure lowering (hypotensive) effect", "setting": "anesthetized mice", "value": "potent hypotensive activity that rivaled or bested that of native 2 or A2 variant 5"}, {"measurement": "ability to rescue the heart from ischemic reperfusion injury", "setting": "isolated rat hearts; peptide at start of reperfusion for 10 min at 1 pM", "value": "equivalent ability to rescue the heart from ischemic reperfusion injury compared to native isoform 2"}, {"measurement": "max/min dP/dt, LVDP and RPP compared to native isoform 2", "setting": "isolated rat hearts; reperfusion", "value": "slight improvement over the native isoform"}, {"measurement": "remaining at 0.5 h, 80 µM", "setting": "in vitro", "value": "82 ± 1", "unit": "%"}, {"measurement": "remaining at 1 h, 80 µM", "setting": "in vitro", "value": "68 ± 4", "unit": "%"}, {"measurement": "inhibition of the proteolytic activity of NEP", "setting": "NEP", "value": "no ability to inhibit the inherent activity of NEP"}]}
